From patent US12390437B2, “Itaconic acid derivatives and uses thereof intreating an inflammatory disease or a disease associated with an undesirable immune response” (Sitryx Therapeutics Limited, priority 2019, dated 2025)

System: not listed separately
Assay: Mouse pharmacokinetic study, intravenous dosing
Format: in vivo
Settings: male, C57BL/6, mouse, iv; plasma, 10 mg/kg i.v., time 0.05 h; read-out: Parent compound concentration following intravenous administration
Outline: (§1)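 Oral arm: 100 mg/kg gavage in 5% DMSO with 0.5% HPMC/0.1% Tween 80, blood from 5 min to 24 h. Intravenous arm: 10 mg/kg tail-vein injection in 10% DMSO with HP-β-CD, blood from 3 min to 8 h. Male C57BL/6 mice; LC-MS/MS on plasma.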

| Structure (SMILES) | concentration at 0.05 h [ng/mL] |
| --- | --- |
| C=C(CC(=O)OC1C(C)(C)CC1(C)C)C(=O)OCC(=O)O [Example 169, 2-((2-methylene-4-oxo-4-(2,2,4,4-tetramethylcyclobutoxy)butanoyl)oxy) acetic acid] | 15600 |
| C=C(CC(=O)O[C@@H](CC)CCCCC)C(=O)OCC(=O)O [Example 170, (S)-2-(2-methylene-4-(octan-3-yloxy)-4-oxobutanoyloxy)acetic acid] | 37200 |

Same assay, conditions: male, C57BL/6, mouse, iv; plasma, 10 mg/kg i.v., time 0.133 h; read-out: Parent compound concentration following intravenous administration

| Structure (SMILES) | concentration at 0.133 h [ng/mL] |
| --- | --- |
| C=C(CC(=O)OC1C(C)(C)CC1(C)C)C(=O)OCC(=O)O [Example 169, 2-((2-methylene-4-oxo-4-(2,2,4,4-tetramethylcyclobutoxy)butanoyl)oxy) acetic acid] | 6430 |
| C=C(CC(=O)O[C@@H](CC)CCCCC)C(=O)OCC(=O)O [Example 170, (S)-2-(2-methylene-4-(octan-3-yloxy)-4-oxobutanoyloxy)acetic acid] | 21900 |

Same assay, conditions: male, C57BL/6, mouse, iv; plasma, 10 mg/kg i.v., time 0.25 h; read-out: Parent compound concentration following intravenous administration

| Structure (SMILES) | concentration at 0.25 h [ng/mL] |
| --- | --- |
| C=C(CC(=O)OC1C(C)(C)CC1(C)C)C(=O)OCC(=O)O [Example 169, 2-((2-methylene-4-oxo-4-(2,2,4,4-tetramethylcyclobutoxy)butanoyl)oxy) acetic acid] | 2800 |
| C=C(CC(=O)O[C@@H](CC)CCCCC)C(=O)OCC(=O)O [Example 170, (S)-2-(2-methylene-4-(octan-3-yloxy)-4-oxobutanoyloxy)acetic acid] | 8930 |

Same assay, conditions: male, C57BL/6, mouse, iv; plasma, 10 mg/kg i.v., time 0.5 h; read-out: Parent compound concentration following intravenous administration

| Structure (SMILES) | concentration at 0.5 h [ng/mL] |
| --- | --- |
| C=C(CC(=O)OC1C(C)(C)CC1(C)C)C(=O)OCC(=O)O [Example 169, 2-((2-methylene-4-oxo-4-(2,2,4,4-tetramethylcyclobutoxy)butanoyl)oxy) acetic acid] | 516 |
| C=C(CC(=O)O[C@@H](CC)CCCCC)C(=O)OCC(=O)O [Example 170, (S)-2-(2-methylene-4-(octan-3-yloxy)-4-oxobutanoyloxy)acetic acid] | 1660 |

Same assay, conditions: male, C57BL/6, mouse, iv; plasma, 10 mg/kg i.v., time 1 h; read-out: Parent compound concentration following intravenous administration

| Structure (SMILES) | concentration at 1 h [ng/mL] |
| --- | --- |
| C=C(CC(=O)OC1C(C)(C)CC1(C)C)C(=O)OCC(=O)O [Example 169, 2-((2-methylene-4-oxo-4-(2,2,4,4-tetramethylcyclobutoxy)butanoyl)oxy) acetic acid] | 8.6 |
| C=C(CC(=O)O[C@@H](CC)CCCCC)C(=O)OCC(=O)O [Example 170, (S)-2-(2-methylene-4-(octan-3-yloxy)-4-oxobutanoyloxy)acetic acid] | 476 |

Same assay, conditions: male, C57BL/6, mouse, iv; plasma, 10 mg/kg i.v., time 2 h; read-out: Parent compound concentration following intravenous administration

| Structure (SMILES) | concentration at 2 h [ng/mL] |
| --- | --- |
| C=C(CC(=O)OC1C(C)(C)CC1(C)C)C(=O)OCC(=O)O [Example 169, 2-((2-methylene-4-oxo-4-(2,2,4,4-tetramethylcyclobutoxy)butanoyl)oxy) acetic acid] | 2.5 |
| C=C(CC(=O)O[C@@H](CC)CCCCC)C(=O)OCC(=O)O [Example 170, (S)-2-(2-methylene-4-(octan-3-yloxy)-4-oxobutanoyloxy)acetic acid] | 66 |

Same assay, conditions: male, C57BL/6, mouse, iv; plasma, 10 mg/kg i.v., time 4 h; read-out: Parent compound concentration following intravenous administration

| Structure (SMILES) | concentration at 4 h [ng/mL] |
| --- | --- |
| C=C(CC(=O)OC1C(C)(C)CC1(C)C)C(=O)OCC(=O)O [Example 169, 2-((2-methylene-4-oxo-4-(2,2,4,4-tetramethylcyclobutoxy)butanoyl)oxy) acetic acid] | 1.3 |
| C=C(CC(=O)O[C@@H](CC)CCCCC)C(=O)OCC(=O)O [Example 170, (S)-2-(2-methylene-4-(octan-3-yloxy)-4-oxobutanoyloxy)acetic acid] | 12 |

Same assay, conditions: male, C57BL/6, mouse, iv; plasma, 10 mg/kg i.v., time 6 h; read-out: Parent compound concentration following intravenous administration

| Structure (SMILES) | concentration at 6 h [ng/mL] |
| --- | --- |
| C=C(CC(=O)OC1C(C)(C)CC1(C)C)C(=O)OCC(=O)O [Example 169, 2-((2-methylene-4-oxo-4-(2,2,4,4-tetramethylcyclobutoxy)butanoyl)oxy) acetic acid] | < 0.8 |
| C=C(CC(=O)O[C@@H](CC)CCCCC)C(=O)OCC(=O)O [Example 170, (S)-2-(2-methylene-4-(octan-3-yloxy)-4-oxobutanoyloxy)acetic acid] | < 4 |

Same assay, conditions: male, C57BL/6, mouse, iv; plasma, 10 mg/kg i.v., time 8 h; read-out: Parent compound concentration following intravenous administration

| Structure (SMILES) | concentration at 8 h [ng/mL] |
| --- | --- |
| C=C(CC(=O)OC1C(C)(C)CC1(C)C)C(=O)OCC(=O)O [Example 169, 2-((2-methylene-4-oxo-4-(2,2,4,4-tetramethylcyclobutoxy)butanoyl)oxy) acetic acid] | < 0.8 |
| C=C(CC(=O)O[C@@H](CC)CCCCC)C(=O)OCC(=O)O [Example 170, (S)-2-(2-methylene-4-(octan-3-yloxy)-4-oxobutanoyloxy)acetic acid] | < 4 |

System: hepatocytes
Assay: Hepatocyte stability assay (human)
Format: in vitro ADME
Settings: 10 μM compound, 0.5×10^6 cells/mL, 60 minutes
Outline: (§2)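 Cryopreserved hepatocytes (viability >70%), 0.5×10^6 cells/mL in Leibovitz buffer, incubated at 37 °C with 10 μM compound (0.1% DMSO), duplicates; buffer-only incubations as negative control. Samples at 0-60 min quenched in acetonitrile, parent measured by LC-MS/MS; half-life and Clint (μL min^−1 10^−6 cells) from ln % remaining versus time slope.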

| Structure (SMILES) | CIint (μL min^−1 10^−6 cells) |
| --- | --- |
| C=C(CC(=O)OC1C(C)(C)CC1(C)C)C(=O)OCC(=O)O [Example 169, 2-((2-methylene-4-oxo-4-(2,2,4,4-tetramethylcyclobutoxy)butanoyl)oxy) acetic acid] | 5 |
| C=C(CC(=O)O[C@@H](CC)CCCCC)C(=O)OCC(=O)O [Example 170, (S)-2-(2-methylene-4-(octan-3-yloxy)-4-oxobutanoyloxy)acetic acid] | 12 |

System: not listed separately
Assay: Hepatocyte stability assay (human)
Format: in vitro ADME
Settings: cryopreserved hepatocytes, 10 μM compound, 0.5×10^6 cells/mL, 60 minutes, read-out: T½
Outline: as §2

| Structure (SMILES) | half-life at 10 μM [h] |
| --- | --- |
| C=C(CC(=O)OC1C(C)(C)CC1(C)C)C(=O)OCC(=O)O [Example 169, 2-((2-methylene-4-oxo-4-(2,2,4,4-tetramethylcyclobutoxy)butanoyl)oxy) acetic acid] | 4.47 |
| C=C(CC(=O)O[C@@H](CC)CCCCC)C(=O)OCC(=O)O [Example 170, (S)-2-(2-methylene-4-(octan-3-yloxy)-4-oxobutanoyloxy)acetic acid] | 2 |

System: not listed separately
Assay: Mouse pharmacokinetic study, oral administration
Format: in vivo
Settings: male, C57BL/6, mouse, plasma, po, 100 mg/kg, plasma, male C57BL/6 mice, oral gavage 100 mg/kg, 0.083 h; read-out: Parent compound concentrations following oral administration, Time 0.083 h
Outline: as §1

| Structure (SMILES) | concentration at 0.083 h [ng/mL] |
| --- | --- |
| C=C(CC(=O)OC1C(C)(C)CC1(C)C)C(=O)OCC(=O)O [Example 169, 2-((2-methylene-4-oxo-4-(2,2,4,4-tetramethylcyclobutoxy)butanoyl)oxy) acetic acid] | 37800 |
| C=C(CC(=O)O[C@@H](CC)CCCCC)C(=O)OCC(=O)O [Example 170, (S)-2-(2-methylene-4-(octan-3-yloxy)-4-oxobutanoyloxy)acetic acid] | 55000 |

Same assay, conditions: male, C57BL/6, mouse, plasma, po, 100 mg/kg, plasma, male C57BL/6 mice, oral gavage 100 mg/kg, 0.25 h; read-out: Parent compound concentrations following oral administration, Time 0.25 h

| Structure (SMILES) | concentration at 0.25 h [ng/mL] |
| --- | --- |
| C=C(CC(=O)OC1C(C)(C)CC1(C)C)C(=O)OCC(=O)O [Example 169, 2-((2-methylene-4-oxo-4-(2,2,4,4-tetramethylcyclobutoxy)butanoyl)oxy) acetic acid] | 9880 |
| C=C(CC(=O)O[C@@H](CC)CCCCC)C(=O)OCC(=O)O [Example 170, (S)-2-(2-methylene-4-(octan-3-yloxy)-4-oxobutanoyloxy)acetic acid] | 38400 |

Same assay, conditions: male, C57BL/6, mouse, plasma, po, 100 mg/kg, plasma, male C57BL/6 mice, oral gavage 100 mg/kg, 0.5 h; read-out: Parent compound concentrations following oral administration, Time 0.5 h

| Structure (SMILES) | concentration at 0.5 h [ng/mL] |
| --- | --- |
| C=C(CC(=O)OC1C(C)(C)CC1(C)C)C(=O)OCC(=O)O [Example 169, 2-((2-methylene-4-oxo-4-(2,2,4,4-tetramethylcyclobutoxy)butanoyl)oxy) acetic acid] | 4600 |
| C=C(CC(=O)O[C@@H](CC)CCCCC)C(=O)OCC(=O)O [Example 170, (S)-2-(2-methylene-4-(octan-3-yloxy)-4-oxobutanoyloxy)acetic acid] | 40600 |

Same assay, conditions: male, C57BL/6, mouse, plasma, po, 100 mg/kg, plasma, male C57BL/6 mice, oral gavage 100 mg/kg, 1 h; read-out: Parent compound concentrations following oral administration, Time 1 h

| Structure (SMILES) | concentration at 1 h [ng/mL] |
| --- | --- |
| C=C(CC(=O)OC1C(C)(C)CC1(C)C)C(=O)OCC(=O)O [Example 169, 2-((2-methylene-4-oxo-4-(2,2,4,4-tetramethylcyclobutoxy)butanoyl)oxy) acetic acid] | 1750 |
| C=C(CC(=O)O[C@@H](CC)CCCCC)C(=O)OCC(=O)O [Example 170, (S)-2-(2-methylene-4-(octan-3-yloxy)-4-oxobutanoyloxy)acetic acid] | 10100 |

Same assay, conditions: male, C57BL/6, mouse, plasma, po, 100 mg/kg, plasma, male C57BL/6 mice, oral gavage 100 mg/kg, 2 h; read-out: Parent compound concentrations following oral administration, Time 2 h

| Structure (SMILES) | concentration at 2 h [ng/mL] |
| --- | --- |
| C=C(CC(=O)OC1C(C)(C)CC1(C)C)C(=O)OCC(=O)O [Example 169, 2-((2-methylene-4-oxo-4-(2,2,4,4-tetramethylcyclobutoxy)butanoyl)oxy) acetic acid] | 971 |
| C=C(CC(=O)O[C@@H](CC)CCCCC)C(=O)OCC(=O)O [Example 170, (S)-2-(2-methylene-4-(octan-3-yloxy)-4-oxobutanoyloxy)acetic acid] | 4420 |

Same assay, conditions: male, C57BL/6, mouse, plasma, po, 100 mg/kg, plasma, male C57BL/6 mice, oral gavage 100 mg/kg, 4 h; read-out: Parent compound concentrations following oral administration, Time 4 h

| Structure (SMILES) | concentration at 4 h [ng/mL] |
| --- | --- |
| C=C(CC(=O)OC1C(C)(C)CC1(C)C)C(=O)OCC(=O)O [Example 169, 2-((2-methylene-4-oxo-4-(2,2,4,4-tetramethylcyclobutoxy)butanoyl)oxy) acetic acid] | 215 |
| C=C(CC(=O)O[C@@H](CC)CCCCC)C(=O)OCC(=O)O [Example 170, (S)-2-(2-methylene-4-(octan-3-yloxy)-4-oxobutanoyloxy)acetic acid] | 4400 |

Same assay, conditions: male, C57BL/6, mouse, plasma, po, 100 mg/kg, plasma, male C57BL/6 mice, oral gavage 100 mg/kg, 6 h; read-out: Parent compound concentrations following oral administration, Time 6 h

| Structure (SMILES) | concentration at 6 h [ng/mL] |
| --- | --- |
| C=C(CC(=O)OC1C(C)(C)CC1(C)C)C(=O)OCC(=O)O [Example 169, 2-((2-methylene-4-oxo-4-(2,2,4,4-tetramethylcyclobutoxy)butanoyl)oxy) acetic acid] | 57 |
| C=C(CC(=O)O[C@@H](CC)CCCCC)C(=O)OCC(=O)O [Example 170, (S)-2-(2-methylene-4-(octan-3-yloxy)-4-oxobutanoyloxy)acetic acid] | 441 |

Same assay, conditions: male, C57BL/6, mouse, plasma, po, 100 mg/kg, plasma, male C57BL/6 mice, oral gavage 100 mg/kg, 8 h; read-out: Parent compound concentrations following oral administration, Time 8 h

| Structure (SMILES) | concentration at 8 h [ng/mL] |
| --- | --- |
| C=C(CC(=O)OC1C(C)(C)CC1(C)C)C(=O)OCC(=O)O [Example 169, 2-((2-methylene-4-oxo-4-(2,2,4,4-tetramethylcyclobutoxy)butanoyl)oxy) acetic acid] | 7.7 |
| C=C(CC(=O)O[C@@H](CC)CCCCC)C(=O)OCC(=O)O [Example 170, (S)-2-(2-methylene-4-(octan-3-yloxy)-4-oxobutanoyloxy)acetic acid] | 25 |

Same assay, conditions: male, C57BL/6, mouse, plasma, po, 100 mg/kg, plasma, male C57BL/6 mice, oral gavage 100 mg/kg, 24 h; read-out: Parent compound concentrations following oral administration, Time 24 h

| Structure (SMILES) | concentration at 24 h [ng/mL] |
| --- | --- |
| C=C(CC(=O)OC1C(C)(C)CC1(C)C)C(=O)OCC(=O)O [Example 169, 2-((2-methylene-4-oxo-4-(2,2,4,4-tetramethylcyclobutoxy)butanoyl)oxy) acetic acid] | < 0.8 |
| C=C(CC(=O)O[C@@H](CC)CCCCC)C(=O)OCC(=O)O [Example 170, (S)-2-(2-methylene-4-(octan-3-yloxy)-4-oxobutanoyloxy)acetic acid] | 8.1 |
